These results are taken from patent publication US9227971B2, “Pyrazolo[1,5-a]pyrimidine compounds as mTOR inhibitors” (Merck Sharp & Dohme Corp., priority 2010, dated 2016).

The subject of assay [1] is phosphorylated 4E-BP1 Thr37/46 (p4E-BP1 Thr37/46), mTORC1 activity, PC3 cells. Description: mTOR target engagement assay, immunofluorescent cell-based, p4E-BP1 Thr37/46 readout (mTORC1 activity). Conditions: Homo sapiens, read-out: p4E-BP1 Thr37/46 IC50. The gist of the method:
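Cell-based immunofluorescence in PC3 cells: serially diluted compounds (0.25% DMSO, 5% FBS) applied for ninety minutes at 37° C before fixation and overnight 4° C staining of p4E-BP1 Thr37/46. Untreated DMSO wells set maximal phosphorylation; IC50 obtained by logistic fitting.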

Assay [2] relates to phosphorylated AKT Ser473 (pAKT S473), mTORC2 activity, PC3 cells. The assay can be described thus: mTOR target engagement assay, immunofluorescent cell-based, pAKT S473 readout (mTORC2 activity). The conditions noted are these: Homo sapiens. An outline of the steps: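 After blocking, cells were stained overnight at 4 °C with anti-pAKT S473 antibody, then a fluorescent secondary; inhibition was read as reduced fluorescence intensity.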

Setting [3] is: PC-3, PC3 cells, compound treatment ninety minutes at 37° C.

Read-outs that look alike come from different tables or passages of the source.

Take `CC(=O)c1c([C@@H]2C[C@H]3CC[C@@H](C2)N3C(=O)c2nnc[nH]2)nc2c(-c3ccc(-c4ccccn4)nc3)cnn2c1N` [Compound 1.1.146, 1-(3-(2,2′-bipyridin-5-yl)-5-((1R,3s,5S)-8-(4H-1,2,4-triazole-3-carbonyl)-8-azabicyclo[3.2.1]octan-3-yl)-7-aminopyrazolo[1,5-a]pyrimidin-6-yl)ethanone]: the IC50 in assay [1] (setting [3]) and in assay [2] (setting [3]) was 1 to 100 nM in each case.

On to `CC(O)c1ccc(-c2cnn3c(N)c(S(C)(=O)=O)c([C@@H]4C[C@H]5CC[C@@H](C4)N5C(=O)c4nnc[nH]4)nc23)cc1` (stereo partly drawn) [Compound 7.51, ((1R,3s,5S)-3-(7-amino-3-(4-(1-hydroxyethyl)phenyl)-6-(methylsulfonyl)pyrazolo [1,5-a]pyrimidin-5-yl)-8-azabicyclo[3.2.1]octan-8-yl)(4H-1,2,4-triazol-3-yl)methanone], for which the IC50 in assay [1] (PC-3, Table 7-8, PC3 cells) lay in the range of 1 to 100 nM; in assay [2] (PC-3, Table 7-8, PC3 cells), 1 to 100 nM.

As for `CS(=O)(=O)c1c([C@@H]2C[C@H]3CC[C@@H](C2)N3C(N)=O)nc2c(-c3ccc(-c4ccccc4)nc3)cnn2c1N` [Compound 3.10, (1R,3s,5S)-3-(7-amino-6-(methylsulfonyl)-3-(6-phenylpyridin-3-yl)pyrazolo[1,5-a]pyrimidin-5-yl)-8-azabicyclo[3.2.1]octane-8-carboxamide], the IC50 fell in the range of 1 to 100 nM in assay [1] (PC-3, Table 3-1, PC3 cells) and 1 to 100 nM in assay [2] (PC-3, Table 3-1, PC3 cells).

For `Cc1[nH]nc(-c2ccc(-c3cnn4c(N)c(C5CC5)c([C@@H]5C[C@H]6CC[C@@H](C5)N6C(=O)c5nnc[nH]5)nc34)cn2)c1F` [Compound 4.19, ((1R,3s,5S)-3-(7-amino-6-cyclopropyl-3-(6-(4-fluoro-5-methyl-1H-pyrazol-3-yl)pyridin-3-yl)pyrazolo[1,5-a]pyrimidin-5-yl)-8-azabicyclo[3.2.1]octan-8-yl)(4H-1,2,4-triazol-3-yl)methanone], the IC50 in assay [1] (setting [3]) and in assay [2] (setting [3]) was 100 to 1000 nM in each case.

Turning to `Nc1c(C2CC2)c([C@@]2(O)C[C@H]3CC[C@@H](C2)N3C(=O)c2nnc[nH]2)nc2c(-c3ccc(-c4ccccc4)nc3)cnn12` [Compound 8.25, ((1R,3s,5S)-3-(7-amino-6-cyclopropyl-3-(6-phenylpyridin-3-yl)pyrazolo[1,5-a]pyrimidin-5-yl)-3-hydroxy-8-azabicyclo[3.2.1]octan-8-yl)(4H-1,2,4-triazol-3-yl)methanone], the IC50 in assay [1] (PC-3, PC3 cells) lay within 1000 to 10000 nM; in assay [2] (PC-3, PC3 cells), 100 to 1000 nM.

Consider `CC(=O)c1c([C@@H]2C[C@H]3CC[C@@H](C2)N3C(=O)CO)nc2c(-c3cnn(-c4ccccn4)c3)cnn2c1N` [Compound 1.1.162, 1-((1R,3s,5S)-3-(6-acetyl-7-amino-3-(1-(pyridin-2-yl)-1H-pyrazol-4-yl)pyrazolo[1,5-a]pyrimidin-5-yl)-8-azabicyclo[3.2.1]octan-8-yl)-2-hydroxyethanone], for which the IC50 in assay [1] (setting [3]) and in assay [2] (setting [3]) was 100 to 1000 nM each time.

Regarding `CC(=O)c1c([C@@H]2C[C@H]3CC[C@@H](C2)N3C(=O)c2nnc[nH]2)nc2c(-c3ccc(-c4cn(C)cn4)nc3)cnn2c1N` [Compound 1.1.108, 1-(5-((1R,3s,5S)-8-(4H-1,2,4-triazole-3-carbonyl)-8-azabicyclo[3.2.1]octan-3-yl)-7-amino-3-(6-(1-methyl-1H-imidazol-4-yl)pyridin-3-yl)pyrazolo[1,5-a]pyrimidin-6-yl)ethanone], the IC50 in assay [1] (setting [3]) and in assay [2] (setting [3]) was 1000 to 10000 nM throughout.

`Cc1nnc(C(=O)N2[C@@H]3CC[C@H]2C[C@H](c2nc4c(-c5ccc(-c6nc7c(s6)CCC7)nc5)cnn4c(N)c2S(C)(=O)=O)C3)[nH]1` [Compound 3.195, ((1R,3s,5S)-3-(7-amino-3-(6-(5,6-dihydro-4H-cyclopenta[d]thiazol-2-yl)pyridin-3-yl)-6-(methylsulfonyl)pyrazolo[1,5-a]pyrimidin-5-yl)-8-azabicyclo[3.2.1]octan-8-yl)(5-methyl-4H-1,2,4-triazol-3-yl)methanone]: the IC50 is 1000 to 10000 nM in assay [1] (PC-3, Table 3-1, PC3 cells) and 1000 to 10000 nM in assay [2] (PC-3, Table 3-1, PC3 cells).

On to `Nc1c(C2CC2)c([C@H]2CC3CC[C@H](C2)N3C(=O)c2nnc[nH]2)nc2c(-c3cnc4c(c3)OCCC4O)cnn12` (stereo partly drawn) [Compound 7.64, ((1R,3s,5S)-3-(7-amino-6-cyclopropyl-3-(4-hydroxy-3,4-dihydro-2H-pyrano[3,2-b]pyridin-7-yl)pyrazolo[1,5-a]pyrimidin-5-yl)-8-azabicyclo[3.2.1]octan-8-yl)(4H-1,2,4-triazol-3-yl)methanone], for which the IC50 lay in the range of 100 to 1000 nM in assay [1] (PC-3, PC3 cells) and 100 to 1000 nM in assay [2] (PC-3, PC3 cells).

With `CC(=O)c1c(C2CC3CCCC(C2)N3C(=O)c2nc[nH]n2)nc2c(-c3ccc(-c4ccccc4)nc3)cnn2c1N` (stereo not drawn) [Compound 8.33, 1-(5-(9-(1H-1,2,4-triazole-3-carbonyl)-9-azabicyclo[3.3.1]nonan-3-yl)-7-amino-3-(6-phenylpyridin-3-yl)pyrazolo[1,5-a]pyrimidin-6-yl)ethanone], the IC50 in assay [1] (PC-3, PC3 cells) fell in the range of 100 to 1000 nM; in assay [2] (PC-3, PC3 cells), 100 to 1000 nM.

In the case of `COCc1cnc(-c2ccc(-c3cnn4c(N)c(C(C)=O)c([C@@H]5C[C@H]6CC[C@@H](C5)N6C(=O)c5nnc[nH]5)nc34)cn2)s1` [Compound 1.1.52, 1-(5-((1R,3s,5S)-8-(4H-1,2,4-triazole-3-carbonyl)-8-azabicyclo[3.2.1]octan-3-yl)-7-amino-3-(6-(5-(methoxymethyl)thiazol-2-yl)pyridin-3-yl)pyrazolo[1,5-a]pyrimidin-6-yl)ethanone], the IC50 in assay [1] (setting [3]) and in assay [2] (setting [3]) was 100 to 1000 nM throughout.

Regarding `CS(=O)(=O)c1c([C@@H]2C[C@H]3CC[C@@H](C2)N3C(=O)c2nnc[nH]2)nc2c(-c3ccc(-c4ccccn4)cc3)cnn2c1N` [Compound 3.31, ((1R,3s,5S)-3-(7-amino-6-(methylsulfonyl)-3-(4-(pyridin-2-yl)phenyl)pyrazolo[1,5-a]pyrimidin-5-yl)-8-azabicyclo[3.2.1]octan-8-yl)(4H-1,2,4-triazol-3-yl)methanone], the IC50 was 100 to 1000 nM in assay [1] (PC-3, Table 3-1, PC3 cells) and 1 to 100 nM in assay [2] (PC-3, Table 3-1, PC3 cells).

Turning to `CC(=O)c1c([C@@H]2C[C@H]3CC[C@@H](C2)N3C(=O)c2nnc[nH]2)nc2c(-c3cnn(-c4ccccn4)c3)cnn2c1N` [Compound 1.1.161, 1-(5-((1R,3s,5S)-8-(4H-1,2,4-triazole-3-carbonyl)-8-azabicyclo[3.2.1]octan-3-yl)-7-amino-3-(1-(pyridin-2-yl)-1H-pyrazol-4-yl)pyrazolo[1,5-a]pyrimidin-6-yl)ethanone], the IC50 in assay [1] (setting [3]) and in assay [2] (setting [3]) was 100 to 1000 nM each time.

As for `CC(=O)c1c([C@H]2CC3CC[C@H](C2)N3C(=O)c2nnc[nH]2)nc2c(-c3cnc4c(c3)OCCC4O)cnn2c1N` (stereo partly drawn) [Compound 7.63, 1-(5-((1R,3s,5S)-8-(4H-1,2,4-triazole-3-carbonyl)-8-azabicyclo[3.2.1]octan-3-yl)-7-amino-3-(4-hydroxy-3,4-dihydro-2H-pyrano[3,2-b]pyridin-7-yl)pyrazolo[1,5-a]pyrimidin-6-yl)ethanone], the IC50 in assay [1] (PC-3, PC3 cells) lay in the range of 1 to 100 nM; in assay [2] (PC-3, PC3 cells), 100 to 1000 nM.

On to `COc1c(F)cc(-c2ccc(-c3cnn4c(N)c(S(C)(=O)=O)c([C@@H]5C[C@H]6CC[C@@H](C5)N6C(=O)c5nnc[nH]5)nc34)cn2)cc1F` [Compound 3.49, ((1R,3s,5S)-3-(7-amino-3-(6-(3,5-difluoro-4-methoxyphenyl)pyridin-3-yl)-6-(methylsulfonyl)pyrazolo[1,5-a]pyrimidin-5-yl)-8-azabicyclo[3.2.1]octan-8-yl)(4H-1,2,4-triazol-3-yl)methanone], for which the IC50 in assay [1] (PC-3, Table 3-1, PC3 cells) fell in the range of 100 to 1000 nM; in assay [2] (PC-3, Table 3-1, PC3 cells), 100 to 1000 nM.

Consider `CS(=O)(=O)c1c([C@@H]2C[C@H]3CC[C@@H](C2)N3C(=O)c2nnc[nH]2)nc2c(-c3ccc(-c4c(F)cccc4F)nc3)cnn2c1N` [Compound 3.107, ((1R,3s,5S)-3-(7-amino-3-(6-(2,6-difluorophenyl)pyridin-3-yl)-6-(methylsulfonyl)pyrazolo[1,5-a]pyrimidin-5-yl)-8-azabicyclo[3.2.1]octan-8-yl)(4H-1,2,4-triazol-3-yl)methanone], for which the IC50 was in the range of 1 to 100 nM in assay [1] (PC-3, Table 3-1, PC3 cells) and 1 to 100 nM in assay [2] (PC-3, Table 3-1, PC3 cells).

`CC(=O)c1c([C@@H]2C[C@H]3CC[C@@H](C2)N3C(=O)c2nnc(N)[nH]2)nc2c(-c3ccc(-n4cc(C)cn4)nc3)cnn2c1N` [Compound 1.1.130, 1-(7-amino-5-((1R,3s,5S)-8-(5-amino-4H-1,2,4-triazole-3-carbonyl)-8-azabicyclo[3.2.1]octan-3-yl)-3-(6-(4-methyl-1H-pyrazol-1-yl)pyridin-3-yl)pyrazolo[1,5-a]pyrimidin-6-yl)ethanone]: the IC50 in assay [1] (setting [3]) and in assay [2] (setting [3]) was 1 to 100 nM each time.

In the case of `CC(=O)c1c([C@@H]2C[C@H]3CC[C@@H](C2)N3C(=O)c2ccn[nH]2)nc2c(-c3ccc(-c4ccn(C)n4)nc3)cnn2c1N` [Compound 1.1.121, 1-(5-((1R,3s,5S)-8-(1H-pyrazole-5-carbonyl)-8-azabicyclo[3.2.1]octan-3-yl)-7-amino-3-(6-(1-methyl-1H-pyrazol-3-yl)pyridin-3-yl)pyrazolo[1,5-a]pyrimidin-6-yl)ethanone], the IC50 lay in the range of 100 to 1000 nM in assay [1] (setting [3]) and 1 to 100 nM in assay [2] (setting [3]).
